The text below walks through data of US20200361871A1 (Enterprise Therapeutics Ltd., priority 2018, published 2020).

A short description of data set [1]: Storage of forms of Compound 36 at 40° C./75% RH in open vials, XRPD. It is filed as physicochemical. Particulars: open vial, 7 days. The method, then:
Form A was stored at 40° C./75% RH, in an open vial. […] Therefore, Form A is stable to exposure to elevated temperature and humidity for up to 2 weeks and no evidence of a hydrated form was observed.
One sample of each of the new forms (Forms B, C, D, E, E+extra peaks, F, G and H) was analysed by ^1H NMR, TGA, DSC and stored at 40° C./75% RH. Results are summarised in Table E with Form A for comparison.

Data set [2] concerns the target human TMEM16A (TMEM16Aabc variant) (Homo sapiens, UniProt Q5XXA6, DEL476-501, form not given). In words: Automated whole-cell patch clamp (Qpatch) TMEM16A potentiator assay in FRT cells stably expressing human TMEM16A. Format: cell-based. The conditions noted are these: for % Potentiation @ 3.33 μM Avg: 3.33 μM solution of test compound, percentage increase of baseline TMEM16A current; for EC50: calculated EC50, Qpatch TMEM16A current at +70 mV. The method in brief: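 FRT cells stably expressing human TMEM16Aabc were recorded by automated whole-cell patch clamp, with intracellular Ca2+ buffered for ~EC20 activation, holding −70 mV and step to +70 mV at 0.05 Hz. Compound was applied cumulatively, 5 min per concentration. Peak current increase as % of baseline was fitted to give EC50 and maximum efficacy.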

“Also recorded” adds a separate entry of the source.

human TMEM16A (TMEM16Aabc variant), sequence (Q5XXA6 with tags, fused parts or gaps DEL476-501): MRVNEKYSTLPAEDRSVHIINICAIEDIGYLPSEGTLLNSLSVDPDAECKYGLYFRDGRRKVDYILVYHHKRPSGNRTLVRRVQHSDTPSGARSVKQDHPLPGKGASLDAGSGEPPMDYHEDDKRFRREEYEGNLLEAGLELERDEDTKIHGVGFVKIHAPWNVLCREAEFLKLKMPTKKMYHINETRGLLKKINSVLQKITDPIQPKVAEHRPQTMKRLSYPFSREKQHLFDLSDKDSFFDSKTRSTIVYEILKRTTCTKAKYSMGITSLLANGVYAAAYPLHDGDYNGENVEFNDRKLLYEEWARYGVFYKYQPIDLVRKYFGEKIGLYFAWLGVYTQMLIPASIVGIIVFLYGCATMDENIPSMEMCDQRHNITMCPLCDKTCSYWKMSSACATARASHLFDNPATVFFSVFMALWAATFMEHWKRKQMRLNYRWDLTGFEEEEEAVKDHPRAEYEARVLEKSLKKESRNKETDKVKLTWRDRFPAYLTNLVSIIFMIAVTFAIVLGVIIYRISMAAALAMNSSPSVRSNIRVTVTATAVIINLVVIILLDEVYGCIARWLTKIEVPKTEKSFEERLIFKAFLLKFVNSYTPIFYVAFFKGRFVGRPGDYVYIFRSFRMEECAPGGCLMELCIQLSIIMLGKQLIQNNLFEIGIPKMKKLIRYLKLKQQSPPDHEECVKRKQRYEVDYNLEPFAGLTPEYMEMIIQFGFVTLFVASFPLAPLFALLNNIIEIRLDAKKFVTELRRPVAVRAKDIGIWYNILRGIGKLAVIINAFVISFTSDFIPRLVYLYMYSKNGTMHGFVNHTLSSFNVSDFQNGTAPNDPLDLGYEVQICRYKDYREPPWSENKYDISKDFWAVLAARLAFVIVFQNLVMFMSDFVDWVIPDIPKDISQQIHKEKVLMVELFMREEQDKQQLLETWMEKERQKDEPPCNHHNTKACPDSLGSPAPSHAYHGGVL

For `C#CC(C)(C)NC(=O)c1cc(NC(=O)Cc2cc(Cl)ccc2O)ccn1` [Compound 36 Form F, 4-[[2-(5-Chloro-2-hydroxy-phenyl)acetyl]amino]-N-(1,1-dimethylprop-2-ynyl)pyridine-2-carboxamide], the “Storage at 40° C./75% RH (change of form by XRPD)” value in data set [1] was “stable; also recorded: No change (7”.
Turning to `C#CC(C)(C)NC(=O)c1cc(NC(=O)Cc2cc(Cl)ccc2O)ccn1` [Compound 36 Form G, 4-[[2-(5-Chloro-2-hydroxy-phenyl)acetyl]amino]-N-(1,1-dimethylprop-2-ynyl)pyridine-2-carboxamide], in data set [1], the “Storage at 40° C./75% RH (change of form by XRPD)” value is reported as “Changed to Form A”.
Take `C#CC(C)(C)NC(=O)c1cc(NC(=O)Cc2cc(Cl)ccc2O)ccn1` [Compound 36 Form E, 4-[[2-(5-Chloro-2-hydroxy-phenyl)acetyl]amino]-N-(1,1-dimethylprop-2-ynyl)pyridine-2-carboxamide]: in data set [1], the “Storage at 40° C./75% RH (change of form by XRPD)” value was “Changed to mainly”.
As to `C#CC(C)(C)NC(=O)c1cc(NC(=O)Cc2cc(Cl)ccc2O)ccn1` [Compound 36 Form D, 4-[[2-(5-Chloro-2-hydroxy-phenyl)acetyl]amino]-N-(1,1-dimethylprop-2-ynyl)pyridine-2-carboxamide], the “Storage at 40° C./75% RH (change of form by XRPD)” value in data set [1] is “converted to a mixture of Form A and Form B; also recorded: Changed to mainly”.
The same measure, in the same setting: the entry for `C#CC(C)(C)NC(=O)c1cc(NC(=O)Cc2cc(Cl)ccc2O)ccn1` [Compound 36 Form C, 4-[[2-(5-Chloro-2-hydroxy-phenyl)acetyl]amino]-N-(1,1-dimethylprop-2-ynyl)pyridine-2-carboxamide] is “Changed to mainly”.
For the compound `C#CC(C)(C)NC(=O)c1cc(NC(=O)Cc2cc(Cl)ccc2O)ccn1` [Compound 36 Form B, 4-[[2-(5-Chloro-2-hydroxy-phenyl)acetyl]amino]-N-(1,1-dimethylprop-2-ynyl)pyridine-2-carboxamide], the “Storage at 40° C./75% RH (change of form by XRPD)” value in data set [1] was “stable; also recorded: No change (7 days)”.
As for `O=C(Cc1cc(Cl)ccc1O)Nc1ccnc(C(=O)NCc2ccccc2O)c1` [Example 32.5, 4-[[2-(5-Chloro-2-hydroxy-phenyl)acetyl]amino]-N-[(2-hydroxyphenyl)methyl]pyridine-2-carboxamide], in data set [2], the “% Potentiation @ 3.33 μM Avg” value is reported as 177% and the EC50 was 590 nM.
In the same order, the values of `CC(C)(C)NC(=O)c1cccc(NC(=O)Cc2cc(F)c(F)cc2O)c1` [Example 2.12, N-tert-Butyl-3-[[2-(4,5-difluoro-2-hydroxy-phenyl)acetyl]amino] benzamide] are 111% and 310 nM.
For `CC(C)(C)NC(=O)c1cccc(NC(=O)Cc2c(O)cccc2O)c1` [Example 2.4, N-tert-Butyl-3-[[2-(2,6-dihydroxyphenyl)acetyl]amino]benzamide], the “% Potentiation @ 3.33 μM Avg” value in data set [2] is listed as 53%.
Turning to `Cc1ccccc1CC(=O)Nc1ccnc(C(=O)NC(C)(C)C)c1` [Example 5.7, N-tert-Butyl-4-[[2-(o-tolyl)acetyl]amino]pyridine-2-carboxamide], in data set [2], the “% Potentiation @ 3.33 μM Avg” value is given as 131% and the concentration for a half-maximal effect (EC50) is 1230 nM.
Consider `CC(C)(C)OC(=O)N1C[C@@H]2[C@H](C1)[C@H]2NC(=O)c1cc(NC(=O)Cc2cc(Cl)ccc2O)ccn1` [Example 8.3, tert-Butyl (1r,5s,6s)-6-{4-[2-(5-chloro-2-hydroxyphenyl)acetamido]pyridine-2-amido}-3-azabicyclo[3.1.0]hexane-3-carboxylate], for which, in data set [2], the “% Potentiation @ 3.33 μM Avg” value came out at 238% and the EC50 is 230 nM.
